{"source": "the supplement of paper PMC10307832", "assay_in_all_cases": "relative viability (nuclei count vs DMSO), 5 days (fraction); higher = more cells survive", "key": {"HCC-78": {"system": "HCC-78", "method_in_brief": "(§1)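 Relative viability divides the nuclei count in treated wells by that in vehicle wells. Lung cancer cell lines were seeded in 1536-well plates, dosed by pin tool the next day, and fixed and stained after 5 days in one step with final 0.05% Triton X-100, 1% formaldehyde and 1 ug/ml Hoechst. Dosing was a single drug or a fixed anchor-drug dose plus five library-drug doses (not always all listed) in √10 steps, and values are medians of duplicate plates imaged at 4×.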"}, "UMC-11": {"system": "UMC-11", "method_in_brief": "as §1"}, "NCI-H727": {"system": "NCI-H727", "method_in_brief": "as §1"}, "LOU-NH91": {"system": "LOU-NH91", "method_in_brief": "as §1"}, "NCI-H838": {"system": "NCI-H838", "method_in_brief": "as §1"}, "NCI-H1666": {"system": "NCI-H1666", "method_in_brief": "as §1"}, "HCC-366": {"system": "HCC-366", "method_in_brief": "as §1"}, "NCI-H2228": {"system": "NCI-H2228", "method_in_brief": "as §1"}, "ABC-1": {"system": "ABC-1", "method_in_brief": "as §1"}, "201T": {"system": "201T", "method_in_brief": "as §1"}, "NCI-H1755": {"system": "NCI-H1755", "method_in_brief": "as §1"}, "NCI-H2009": {"system": "NCI-H2009", "method_in_brief": "as §1"}, "NCI-H1734": {"system": "NCI-H1734", "method_in_brief": "as §1"}, "NCI-H358": {"system": "NCI-H358", "method_in_brief": "as §1"}, "SW 1573": {"system": "SW 1573", "method_in_brief": "as §1"}, "NCI-H1650": {"system": "NCI-H1650", "method_in_brief": "as §1"}, "NCI-H520": {"system": "NCI-H520", "method_in_brief": "as §1"}, "LK-2": {"system": "LK-2", "method_in_brief": "as §1"}, "BEN": {"system": "BEN", "method_in_brief": "as §1"}, "NCI-H2405": {"system": "NCI-H2405", "method_in_brief": "as §1"}, "NCI-H2347": {"system": "NCI-H2347", "method_in_brief": "as §1"}, "NCI-H1355": {"system": "NCI-H1355", "method_in_brief": "as §1"}}, "data": [{"smiles": "Cc1cnc(-c2cnc(NCCNc3ccc(C#N)cn3)nc2-c2ccc(Cl)cc2Cl)[nH]1", "note": "+ Cc1nc(Nc2ncc(C(=O)Nc3c(C)cccc3Cl)s2)cc(N2CCN(CCO)CC2)n1 [Dasatinib] (partner 0.075 µM)", "values": [{"measurement": "relative viability", "setting": "HCC-78; first compound 0.08 µM", "value": 0.434}, {"measurement": "relative viability", "setting": "HCC-78; first compound 0.253 µM", "value": 0.364}, {"measurement": "relative viability", "setting": "HCC-78; first compound 0.8 µM", "value": 0.41}, {"measurement": "relative viability", "setting": "HCC-78; first compound 2.53 µM", "value": 0.371}, {"measurement": "relative viability", "setting": "UMC-11; first compound 0.08 µM", "value": 0.515}, {"measurement": "relative viability", "setting": "UMC-11; first compound 0.253 µM", "value": 0.542}, {"measurement": "relative viability", "setting": "UMC-11; first compound 0.8 µM", "value": 0.498}, {"measurement": "relative viability", "setting": "UMC-11; first compound 2.53 µM", "value": 0.527}, {"measurement": "relative viability", "setting": "NCI-H727; first compound 0.08 µM", "value": 0.452}, {"measurement": "relative viability", "setting": "NCI-H727; first compound 0.253 µM", "value": 0.358}, {"measurement": "relative viability", "setting": "NCI-H727; first compound 0.8 µM", "value": 0.339}, {"measurement": "relative viability", "setting": "NCI-H727; first compound 2.53 µM", "value": 0.54}, {"measurement": "relative viability", "setting": "LOU-NH91; first compound 0.08 µM", "value": 0.562}, {"measurement": "relative viability", "setting": "LOU-NH91; first compound 0.253 µM", "value": 0.558}, {"measurement": "relative viability", "setting": "LOU-NH91; first compound 0.8 µM", "value": 0.55}, {"measurement": "relative viability", "setting": "LOU-NH91; first compound 2.53 µM", "value": 0.514}, {"measurement": "relative viability", "setting": "NCI-H838; first compound 0.08 µM", "value": 0.276}, {"measurement": "relative viability", "setting": "NCI-H838; first compound 0.253 µM", "value": 0.307}, {"measurement": "relative viability", "setting": "NCI-H838; first compound 0.8 µM", "value": 0.306}, {"measurement": "relative viability", "setting": "NCI-H838; first compound 2.53 µM", "value": 0.363}, {"measurement": "relative viability", "setting": "NCI-H1666; first compound 0.08 µM", "value": 0.897}, {"measurement": "relative viability", "setting": "NCI-H1666; first compound 0.253 µM", "value": 0.671}, {"measurement": "relative viability", "setting": "NCI-H1666; first compound 0.8 µM", "value": 0.845}, {"measurement": "relative viability", "setting": "NCI-H1666; first compound 2.53 µM", "value": 0.7}, {"measurement": "relative viability", "setting": "HCC-366; first compound 0.08 µM", "value": 0.67}, {"measurement": "relative viability", "setting": "HCC-366; first compound 0.253 µM", "value": 0.545}, {"measurement": "relative viability", "setting": "HCC-366; first compound 0.8 µM", "value": 0.618}, {"measurement": "relative viability", "setting": "HCC-366; first compound 2.53 µM", "value": 0.595}, {"measurement": "relative viability", "setting": "NCI-H2228; first compound 0.08 µM", "value": 0.548}, {"measurement": "relative viability", "setting": "NCI-H2228; first compound 0.253 µM", "value": 0.554}, {"measurement": "relative viability", "setting": "NCI-H2228; first compound 0.8 µM", "value": 0.494}, {"measurement": "relative viability", "setting": "NCI-H2228; first compound 2.53 µM", "value": 0.424}, {"measurement": "relative viability", "setting": "ABC-1; first compound 0.08 µM", "value": 0.553}, {"measurement": "relative viability", "setting": "ABC-1; first compound 0.8 µM", "value": 0.476}, {"measurement": "relative viability", "setting": "ABC-1; first compound 2.53 µM", "value": 0.417}, {"measurement": "relative viability", "setting": "201T; first compound 0.08 µM", "value": 0.621}, {"measurement": "relative viability", "setting": "201T; first compound 0.8 µM", "value": 0.591}, {"measurement": "relative viability", "setting": "201T; first compound 2.53 µM", "value": 0.571}, {"measurement": "relative viability", "setting": "NCI-H1755; first compound 0.08 µM", "value": 0.435}, {"measurement": "relative viability", "setting": "NCI-H1755; first compound 0.253 µM", "value": 0.427}, {"measurement": "relative viability", "setting": "NCI-H1755; first compound 0.8 µM", "value": 0.398}, {"measurement": "relative viability", "setting": "NCI-H1755; first compound 2.53 µM", "value": 0.399}, {"measurement": "relative viability", "setting": "NCI-H2009; first compound 0.08 µM", "value": 0.322}, {"measurement": "relative viability", "setting": "NCI-H2009; first compound 0.253 µM", "value": 0.284}, {"measurement": "relative viability", "setting": "NCI-H2009; first compound 0.8 µM", "value": 0.282}, {"measurement": "relative viability", "setting": "NCI-H2009; first compound 2.53 µM", "value": 0.231}, {"measurement": "relative viability", "setting": "NCI-H1734; first compound 0.08 µM", "value": 0.461}, {"measurement": "relative viability", "setting": "NCI-H1734; first compound 0.253 µM", "value": 0.417}, {"measurement": "relative viability", "setting": "NCI-H1734; first compound 0.8 µM", "value": 0.467}, {"measurement": "relative viability", "setting": "NCI-H1734; first compound 2.53 µM", "value": 0.415}, {"measurement": "relative viability", "setting": "NCI-H358; first compound 0.08 µM", "value": 0.157}, {"measurement": "relative viability", "setting": "NCI-H358; first compound 0.253 µM", "value": 0.17}, {"measurement": "relative viability", "setting": "NCI-H358; first compound 0.8 µM", "value": 0.207}, {"measurement": "relative viability", "setting": "NCI-H358; first compound 2.53 µM", "value": 0.189}, {"measurement": "relative viability", "setting": "SW 1573; first compound 0.08 µM", "value": 0.687}, {"measurement": "relative viability", "setting": "SW 1573; first compound 0.253 µM", "value": 0.395}, {"measurement": "relative viability", "setting": "SW 1573; first compound 0.8 µM", "value": 0.493}, {"measurement": "relative viability", "setting": "SW 1573; first compound 2.53 µM", "value": 0.168}, {"measurement": "relative viability", "setting": "NCI-H1650; first compound 0.08 µM", "value": 0.31}, {"measurement": "relative viability", "setting": "NCI-H1650; first compound 0.253 µM", "value": 0.345}, {"measurement": "relative viability", "setting": "NCI-H1650; first compound 0.8 µM", "value": 0.295}, {"measurement": "relative viability", "setting": "NCI-H1650; first compound 2.53 µM", "value": 0.312}, {"measurement": "relative viability", "setting": "NCI-H520; first compound 0.08 µM", "value": 0.219}, {"measurement": "relative viability", "setting": "NCI-H520; first compound 0.253 µM", "value": 0.186}, {"measurement": "relative viability", "setting": "NCI-H520; first compound 0.8 µM", "value": 0.245}, {"measurement": "relative viability", "setting": "NCI-H520; first compound 2.53 µM", "value": 0.299}, {"measurement": "relative viability", "setting": "LK-2; first compound 0.08 µM", "value": 0.387}, {"measurement": "relative viability", "setting": "LK-2; first compound 0.253 µM", "value": 0.302}, {"measurement": "relative viability", "setting": "LK-2; first compound 0.8 µM", "value": 0.39}, {"measurement": "relative viability", "setting": "BEN; first compound 0.08 µM", "value": 0.332}, {"measurement": "relative viability", "setting": "BEN; first compound 0.253 µM", "value": 0.364}, {"measurement": "relative viability", "setting": "BEN; first compound 0.8 µM", "value": 0.291}, {"measurement": "relative viability", "setting": "BEN; first compound 2.53 µM", "value": 0.351}, {"measurement": "relative viability", "setting": "NCI-H2405; first compound 0.08 µM", "value": 0.215}, {"measurement": "relative viability", "setting": "NCI-H2405; first compound 0.253 µM", "value": 0.223}, {"measurement": "relative viability", "setting": "NCI-H2405; first compound 0.8 µM", "value": 0.223}, {"measurement": "relative viability", "setting": "NCI-H2405; first compound 2.53 µM", "value": 0.195}, {"measurement": "relative viability", "setting": "NCI-H2347; first compound 0.08 µM", "value": 0.279}, {"measurement": "relative viability", "setting": "NCI-H2347; first compound 0.253 µM", "value": 0.309}, {"measurement": "relative viability", "setting": "NCI-H2347; first compound 0.8 µM", "value": 0.283}, {"measurement": "relative viability", "setting": "NCI-H2347; first compound 2.53 µM", "value": 0.333}, {"measurement": "relative viability", "setting": "NCI-H1355; first compound 0.08 µM", "value": 0.749}, {"measurement": "relative viability", "setting": "NCI-H1355; first compound 0.253 µM", "value": 0.664}, {"measurement": "relative viability", "setting": "NCI-H1355; first compound 0.8 µM", "value": 0.746}, {"measurement": "relative viability", "setting": "NCI-H1355; first compound 2.53 µM", "value": 0.689}]}]}
